Data on two compounds can be found in patent US7538252B2, “Drug design for tubulin inhibitors, compositions, and methods of treatment thereof” (BiPar Sciences, Inc., priority 2006, dated 2009).

One assay has as its system HeLa cells. Briefly: TUNEL apoptosis assay with flow cytometry. Conditions: FIG. 7, compared to control DIPE. It counts as cell-based. From the text: Programmed cell death (apoptosis) is an important homeostatic mechanism in the immune and other systems. The phenomenon of nuclear disintegration during apoptosis can be used as a marker to detect cells undergoing this process. While a variety of methods are available to detect apoptotic cells the TUNEL assay allows the rapid phenotypic identification of individual apoptotic cells using flow cytometry (FACS). Terminal transferase dUTP nick end labeling (TUNEL) is a common method for detecting DNA fragmentation that results from apoptosis. The assay based on the presence of nicks in the DNA that can be identified by terminal transferase, an enzyme that will catalyze the addition of dUTPs that are secondarily labeled with a marker. It may also label cells undergoing necrosis or cells that have suffered severe DNA damage.
Hela cells were obtained from ATCC. For DNA content analysis, 2×10^5 cells were washed twice with PBS and fixed in 70% ethanol. Cells were treated with 100 units/mL RNase A for 20 minutes at 37° C., resuspended in cold PBS containing Alexa Fluor® 405 fluorescent stain (Invitrogen) according to the manufacturer's protocol. Cells were analyzed by flow cytometry to characterize the cell cycle. […]
A general note: In flow cytometry, cells or beads pass a laser one at a time.

A further assay relates to HCT116 and Hela cells. The assay is described as follows: Cell cycle analysis by flow cytometry. It counts as cell-based. Conditions: FIG. 6, compared to control DIPE. As for the experimental part: HCT116 and Hela cells were obtained from ATCC. For DNA content analysis, 2×10^5 cells were washed twice with PBS and fixed in 70% ethanol. Cells were treated with 100 units/mL RNase A for 20 minutes at 37° C., resuspended in cold PBS containing Alexa Fluor® 405 fluorescent stain (Invitrogen) according to the manufacturer's protocol. Cells were analyzed by flow cytometry.
For DNA replication analysis, 2×10^5 cells were incubated with 50 μmol/L bromodeoxyuridine (BrdUrd) for 30 minutes. Cells were fixed in 70% ethanol and BrdUrd incorporation was determined by flow cytometric analysis using an anti-BrdUrd-FITC antibody (Becton Dickinson, Franklin Lakes, N.J.) according to the manufacturer's protocol. To assess the degree of G2/M checkpoint, mitotic cells were detected by flow cytometry using the mitosis-specific antibody GF-7. Fixed cells were incubated for 30 minutes with GF7-phycoerythrin (PE) antibody (BD Biosciences Pharmingen), washed with PBS and analyzed by flow cytometry. FIG. 6 compares the results obtained with DIPE and formula IIIB.

For another assay, the system named is TNF-alpha mRNA. Briefly: TNF-alpha mRNA level in LPS-stimulated PU5-1.8 macrophages (Northern blot). It counts as cell-based, murine. As for the experimental part: This example provides an assay that can be used to screen compounds of Formula I for their ability to reduce the expression of cytokines (e.g., TNF-alpha) in a mammal.
The murine macrophage PU5-1.8 cell line is purchased from the American Type Culture Collection (ATCC, Rockville, Md.). Cells are grown in DMEM medium supplemented with […] sodium pyruvate, 0.1 mM nonessential amino acids, 2 mM glutamine and 5% fetal bovine serum (Life Technologies, Staten Island, N.Y.). Cells are maintained in a humidified atmosphere of 5% CO2-95% air at 37° C. Cells are passaged twice weekly by firmly tapping the side of the flask to dislodge the adherent cells. Both non-adherent and adherent cells are passaged. Exponentially growing cells are seeded at 5×10^5/mL, 4 mL per 60-mm dish 24 h prior to the experiment. Test compounds are delivered in 1 mL volumes of the medium added to each dish at the start of the experiment. All dishes are incubated at 37° C. in 5% CO2-95% air for 3 h.
The Tumor Necrosis Factor (TNF-alpha) cDNA is obtained from the ATCC (Rockville, Md.). […]
Hybridized bands are quantified by analyzing the images obtained by using a video densitometer (Applied Imaging Corporation, Santa Clara, Calif.). […]
Treatment of PU5-1.8 murine macrophages with LPS (100 ng/mL) for 3 h results in a significant increase (>7 fold) in the level of TNF-alpha mRNA as determined by Northern blot analysis. […]

For the compound `COc1ccc(Oc2c(I)cc(C(C)=O)cc2I)cc1N` [Formula IIIB, 1-(4-(3-amino-4-methoxyphenoxy)-3,5-diiodophenyl)ethanone], the induction of apoptosis entry in the assay with HeLa cells is recorded as “induction of apoptosis”. Besides, the cell-cycle arrest entry with HCT116 and Hela cells is listed as “cell-cycle arrest”.

In the case of `COc1cc2c(c(OC)c1OC)-c1ccc(OC)c(=O)cc1[C@@H](NC(C)=O)CC2` [colchicine], the “inhibition of TNF-alpha mRNA accumulation” value in the assay with TNF-alpha mRNA (10 μM added to LPS (100 ng/mL) treated cultures, 3 h) turned out to be 68%. Also, the “effect on TNF-alpha mRNA expression” value in the assay with TNF-alpha mRNA (10 μM, cells without LPS) is on record as “no effect”.
